{
  "source": "patent US20250064799A1",
  "about": "“ORAL FORMULATIONS OF LEVOSIMENDAN FOR TREATING PULMONARY HYPERTENSION WITH HEART FAILURE WITH PRESERVED EJECTION FRACTION” (Tenax Therapeutics, Inc., priority 2021, published 2025)",
  "format_in_all_cases": "in vivo, human",
  "key": {"[1]": {"tested_on": "patients with PH-HFpEF", "experiment": "TNX-LVO-05 open-label extension, weekly 24-hour I.V. levosimendan: 6MWT and HR", "parameters": "TNX-LVO-05 (WK 24/48) 6MWT: unit not given beside the values", "settings": "individual patients, week 24/48", "description": "PH-HFpEF is a progressive, fatal disease for which there are no approved therapies. All patients that the 6-week parent TNX-LVO-04 study (also referred to as the initial Help Study) underwent assessments of safety and efficacy in a double-blind randomized protocol. […] For these reasons, all participating patients were allowed to enter an open-label extension study (also referred to as TNX-LVO-05), to provide ongoing levosimendan therapy for two additional years.\nThe efficacy of the once weekly levosimendan regimen is supported by an active metabolite with an extended half-life of 70-80 hours. The metabolite peaks approximately two days after completing the weekly dose, declining through the remainder of the week. Data from the parent TNX-LVO-04 study indicate patients' response to therapy peaks early in the week, followed by a decline in keeping with exposure to the active metabolite. Patients that entered TNX-LVO-05 were required to undergo the insertion of a port-a-cath, learn how to self-administer the levosimendan infusion through a port-a-cath at home, and weekly administer IV levosimendan through their port-a-cath for 24 hours. It is important to note that patients who entered TNX-LVO-05 have chosen to continue their 24-hour weekly levosimendan dose regimen, acknowledging that patients recognize the benefits of the drug."}, "[2]": {"tested_on": "patients with PH-HFpEF", "experiment": "Kansas City Cardiomyopathy Questionnaire (KCCQ), I.V. to oral levosimendan transition study", "experimental": "Methods: Patients with PH-HFpEF who were in the open label extension study of the HELP Trial for more than 18 months volunteered to enroll in this transition protocol. Patients were initiated with 1 mg/day of oral levosimendan 5-7 days after the last IV levosimendan infusion. The oral dose was increased every 2 weeks by 1 mg/day to a maximum of 4 mg/day over an 8 week period. The highest daily dose was determined by the investigator based on clinical assessments of symptoms and side effects. The primary safety endpoints were change in resting heart rate and blood pressure from baseline to final study visit and all other adverse events. Secondary efficacy endpoints included change in six-minute walk distance (6MWD), serum brain natriuretic peptide (BNP) or NT-proBNP levels, and quality of life as assessed by Kansas City Cardiomyopathy Questionnaire clinical summary score (KCCQ-CS) and overall summary score (KCCQ-OS) from baseline to final study visit. All comparisons were the baseline and at week 6-8 measurements at the highest daily dose of levosimendan.\n• Change in six-minute walk distance (6MWD) from baseline to final study visit • Change in serum brain natriuretic peptide (BNP) or NT-proBNP levels from baseline to final study visit • Change in quality of life as assessed by Kansas City Cardiomyopathy Questionnaire clinical summary score (KCCQ-CS) and overall summary score (KCCQ-OS) from baseline to final study visit\nAll comparisons were the baseline and at week 6-8 measurements at the highest daily dose of levosimendan."}, "[3]": {"tested_on": "Patient 019-002 with PH-HFpEF", "experiment": "HELP Study 24-hour open label lead-in infusion, rest and exercise right heart catheterization, Patient 019-002", "experimental": "FIG. 3: Pulmonary Capillary Wedge Pressure (PCWP) of Patient […] of HELP Study.\nDuring the HELP Study, as described in PCT International Application Publication No. WO 2021/126884, the entire contents of which are incorporated by reference, Patient 019-002 was administered empagliflozin shortly after beginning levosimendan therapy.\nSpecifically, Patient 019-002 had established PH-HFpEF and was initially enrolled into the HELP Trial. The diagnosis of PH-HFpEF was confirmed by rest and exercise right heart catheterization. […] The PCWP of 35 mmHg at rest increased with exercise to 55 mmHg at baseline. […] Thus, levosimendan produced a 40% fall in resting PCWP and a 33% fall in exercise PCWP. In addition, at baseline the CVP was 18 mmHg and increased to 30 mmHg with exercise. Following the 24 hours of i.v. levosimendan the CVP fell to 12 mmHg at rest and to 21 mmHg with exercise. Thus, levosimendan produced a 33% fall in resting CVP, and a 30% fall in CVP with exercise. Accordingly, the response of Patient 019-002 to levosimendan treatment was typical of other patients in the study in terms of improvements to their hemodynamic profile (FIG. 3)."}, "[4]": {"settings": "baseline to final visit, oral levosimendan"}, "[5]": {"settings": "24 hours of i.v. levosimendan vs baseline"}},
  "note": "Values joined by “and” are separate entries in the source; they are usually repeats but may differ in a detail not shown here. Equal values may be shown once.",
  "data": [
    {"compound": "C[C@@H]1CC(=O)NN=C1c1ccc(NN=C(C#N)C#N)cc1", "note": "[levosimendan]", "values": [
      {"measurement": "TNX-LVO-05 (WK 24/48) 6MWT", "setting": "[1]", "value": "310 and 180 and 312 and 255 and 347 and 393 and 313 and 91 and 274 and 213 and 225 and 174 and 590"},
      {"measurement": "TNX-LVO-05 (WK 24/48) HR", "setting": "[1]", "value": "62 (3×) and 64 and 85 (2×) and 70 and 69 and 74 and 58 and 73 and 82 and 75 and 87 and 65 and 78 and 77 and 91"},
      {"measurement": "KCCQ OVERALL SUMMARY, mean Δ", "setting": "[2]; [4]", "value": "+3.7"},
      {"measurement": "KCCQ PHYSICAL LIMITATION, mean Δ", "setting": "[2]; [4]", "value": "+0.3"},
      {"measurement": "KCCQ QUALITY OF LIFE, mean Δ", "setting": "[2]; [4]", "value": "+4.2"},
      {"measurement": "KCCQ SELF EFFICACY, mean Δ", "setting": "[2]; [4]", "value": "−2.3"},
      {"measurement": "KCCQ SOCIAL LIMITATION, mean Δ", "setting": "[2]; [4]", "value": "+5.5"},
      {"measurement": "KCCQ Symptom Burden, mean Δ", "setting": "[2]; [4]", "value": "+6.3"},
      {"measurement": "KCCQ Symptom Frequency, mean Δ", "setting": "[2]; [4]", "value": "+3.1"},
      {"measurement": "KCCQ Symptom Stability, mean Δ", "setting": "[2]; [4]", "value": "+9.4"},
      {"measurement": "KCCQ TOTAL SYMPTOM, mean Δ", "setting": "[2]; [4]", "value": "+4.7"},
      {"measurement": "mean KCCQ-CS score improvement", "setting": "[2]; n=16, oral levosimendan", "value": 2.5, "unit": "points"},
      {"measurement": "mean KCCQ-OS score improvement", "setting": "[2]; n=16, oral levosimendan", "value": 3.7, "unit": "points"},
      {"measurement": "mean KCCQ-TS score improvement", "setting": "[2]; n=16, oral levosimendan", "value": 4.7, "unit": "points"},
      {"measurement": "fall in CVP with exercise", "setting": "[3]; [5]", "value": 30, "unit": "%"},
      {"measurement": "fall in exercise PCWP", "setting": "[3]; [5]", "value": 33, "unit": "%"},
      {"measurement": "fall in resting CVP", "setting": "[3]; [5]", "value": 33, "unit": "%"},
      {"measurement": "fall in resting PCWP", "setting": "[3]; [5]", "value": 40, "unit": "%"},
      {"measurement": "CVP at rest", "setting": "[3]; following 24 hours of i.v. levosimendan (baseline 18 mmHg)", "value": 12, "unit": "mmHg"},
      {"measurement": "CVP with exercise", "setting": "[3]; following 24 hours of i.v. levosimendan (baseline 30 mmHg)", "value": 21, "unit": "mmHg"},
      {"measurement": "PCWP at rest", "setting": "[3]; following 24 hours of i.v. levosimendan (baseline 35 mmHg)", "value": 21, "unit": "mmHg"},
      {"measurement": "PCWP with exercise", "setting": "[3]; following 24 hours of i.v. levosimendan (baseline 55 mmHg)", "value": 37, "unit": "mmHg"},
      {"measurement": "pulmonary capillary wedge pressure (PCWP) after levosimendan administration (FIG. 3)", "setting": "[3]; single 24-hour open label lead-in infusion", "value": "decrease"}
    ]}
  ]
}
